Results reported in patent publication US20090253634A1, “Methods and Compositions for the Treatment of Gastrointestinal Disorders” (MICROBIA, INC., priority 2005, published 2009).
Bridge positions count the residues as written; N and C are the ends. Peptide text beside a SMILES is read from it.

Tested on: gastrointestinal transit
Assay: rat gastrointestinal transit (GIT) assay
Type: in vivo, CD rats
Description: In order to determine whether the peptides increase the rate of gastrointestinal transit, the peptides and controls were tested using a murine gastrointestinal transit (GIT) assay (Moon et al. Infection and Immunity 25:127, 1979). In this assay, charcoal, which can be readily visualized in the gastrointestinal tract is administered to mice after the administration of a test compound. The distance traveled by the charcoal is measured and expressed as a percentage of the total length of the […].
Mice were fasted with free access to water for 12 to 16 hours before the treatment with peptide or control buffer. The peptides were orally administered at 1 μg/kg-1 mg/kg of peptide in buffer ([…] pH 7.5) 7 minutes before being given an oral dose of 5% Activated Carbon (Aldrich 242276-250G). Control mice were administered buffer only before being given a dose of Activated Carbon. After 15 minutes, the mice were sacrificed and their intestines from the stomach to the cecum were dissected. The total length of the intestine as well as the distance traveled from the stomach to the charcoal front was measured for each animal and the results are expressed as the percent of the total length of the intestine traveled by the charcoal front. All results are reported as the average of 10 mice±standard deviation. […] P-values are calculated using a two-sided T-Test assuming unequal variances. […]

## C[C@@H]1NC(=O)[C@@H]2CCCN2C(=O)[C@H](CC(N)=O)NC(=O)[C@@H]2CSSC[C@H](N)C(=O)N[C@H]3CSSC[C@H](NC1=O)C(=O)N[C@@H]([C@@H](C)O)C(=O)NCC(=O)N[C@H](C(=O)N[C@@H](Cc1ccc(O)cc1)C(=O)O)CSSC[C@H](NC(=O)[C@H](Cc1ccc(O)cc1)NC(=O)[C@H](CCC(=O)O)NC3=O)C(=O)N2 [SEQ ID NO:3] (H-CCEYCCNPACTGCY-OH; disulfide 1-6, 2-10, 5-13; N-terminus and C-terminus assumed)
Female rats, similar effects in male rats, FIG. 4e
  intestinal transit, dose dependence: increases in a dose dependent manner
Rat GIT assay, FIG. 4d
  intestinal transit: intestinal transit increases
